Article PMC5218480 (PLoS ONE, 2017)

System: MV-4-11 cells
Experiment: Gene expression microarray analysis (Affymetrix PrimeView) and GSEA
Assay type: cell-based, human
Set-up: RFU PODN (11730768_x_at) / Fold change /veh PODN (11730768_x_at) / RFU LINC00158 (11744669_a_at) / Fold change /veh LINC00158 (11744669_a_at) / RFU DUSP10 (11751237_a_at) / Fold change /veh DUSP10 (11751237_a_at) / RFU ID3 (11757404_x_at) / Fold change /veh ID3 (11757404_x_at) / RFU PLEKHG5 (11737974_s_at) / Fold change /veh PLEKHG5 (11737974_s_at) / RFU LRRC4B (11730491_at) / Fold change /veh LRRC4B (11730491_at) / RFU GIMAP4 (11747438_a_at) / Fold change /veh GIMAP4 (11747438_a_at) / RFU KRT8 (11758183_x_at) / Fold change /veh KRT8 (11758183_x_at) / RFU CNN1 (11734310_a_at) / Fold change /veh CNN1 (11734310_a_at) / RFU VPS37D (11726825_at) / Fold change /veh VPS37D (11726825_at) / RFU C10orf10 (11716522_x_at) / Fold change /veh C10orf10 (11716522_x_at) / RFU KIR2DL2 /// KIR2DL4 /// KIR2DL5A /// KIR2DL5B /// KIR2DS1 /// KIR2DS2 /// KIR2DS3 /// KIR2DS4 /// KIR3DL3 /// KIR3DL3 /// KIR3DS1 (11738374_at) / Fold change /veh KIR2DL2 /// KIR2DL4 /// KIR2DL5A /// KIR2DL5B /// KIR2DS1 /// KIR2DS2 /// KIR2DS3 /// KIR2DS4 /// KIR3DL3 /// KIR3DL3 /// KIR3DS1 (11738374_at) / RFU C1QL1 (11718748_at) / Fold change /veh C1QL1 (11718748_at) / RFU TMPRSS4 (11747572_a_at) / Fold change /veh TMPRSS4 (11747572_a_at) / RFU HAMP (11756126_x_at) / Fold change /veh HAMP (11756126_x_at) / RFU RNFT2 (11725882_a_at) / Fold change /veh RNFT2 (11725882_a_at) / RFU NR4A2 (11747474_a_at) / Fold change /veh NR4A2 (11747474_a_at) / RFU ABCC12 (11746883_a_at) / Fold change /veh ABCC12 (11746883_a_at) / RFU TMEM136 (11760407_x_at) / Fold change /veh TMEM136 (11760407_x_at) / RFU CLDN22 /// WWC2 (11732394_at) / Fold change /veh CLDN22 /// WWC2 (11732394_at) / RFU HLA-DPB1 (11760878_x_at) / Fold change /veh HLA-DPB1 (11760878_x_at) / RFU SPINT1 (11716480_a_at) / Fold change /veh SPINT1 (11716480_a_at) / RFU GAP43 (11754022_s_at) / Fold change /veh GAP43 (11754022_s_at) / RFU A4GNT (11735810_at) / Fold change /veh A4GNT (11735810_at) / RFU PRB3 (11715151_x_at) / Fold change /veh PRB3 (11715151_x_at) / RFU TUBB4B (11761932_at) / Fold change /veh TUBB4B (11761932_at) / RFU CAPN14 (11732068_a_at) / Fold change /veh CAPN14 (11732068_a_at) / RFU TMCC2 (11721928_a_at) / Fold change /veh TMCC2 (11721928_a_at) / RFU IRGQ (11745062_a_at) / Fold change /veh IRGQ (11745062_a_at) / RFU FAM174B (11720279_a_at) / Fold change /veh FAM174B (11720279_a_at) / RFU TMPRSS4 (11748680_a_at) / Fold change /veh TMPRSS4 (11748680_a_at) / RFU FAM212B (11763350_a_at) / Fold change /veh FAM212B (11763350_a_at) / RFU PLEKHG5 (11743358_a_at) / Fold change /veh PLEKHG5 (11743358_a_at) / RFU ZSCAN30 (11745921_a_at) / Fold change /veh ZSCAN30 (11745921_a_at) / RFU CMKLR1 (11741424_a_at) / Fold change /veh CMKLR1 (11741424_a_at) / RFU LOC101060620 /// MAPK8IP1 (11723275_at) / Fold change /veh LOC101060620 /// MAPK8IP1 (11723275_at) / RFU SPTSSB (11747773_x_at) / Fold change /veh SPTSSB (11747773_x_at) / RFU PRSS12 (11739890_at) / Fold change /veh PRSS12 (11739890_at) / RFU BIN1 (11741810_x_at) / Fold change /veh BIN1 (11741810_x_at) / RFU WNT11 (11732464_a_at) / Fold change /veh WNT11 (11732464_a_at) / RFU C10orf10 (11716521_a_at) / Fold change /veh C10orf10 (11716521_a_at) / RFU C5orf56 (11738089_at) / Fold change /veh C5orf56 (11738089_at) / RFU CYB561 (11721691_x_at) / Fold change /veh CYB561 (11721691_x_at) / RFU ANKRD19P (11752326_a_at) / Fold change /veh ANKRD19P (11752326_a_at) / RFU OR2T12 /// OR2T33 /// OR2T8 (11738714_s_at) / Fold change /veh OR2T12 /// OR2T33 /// OR2T8 (11738714_s_at) / RFU VCAN (11748164_a_at) / Fold change /veh VCAN (11748164_a_at) / RFU JSRP1 (11732532_at) / Fold change /veh JSRP1 (11732532_at) / RFU KRTAP10-11 (11738290_x_at) / Fold change /veh KRTAP10-11 (11738290_x_at) / RFU MYO3A (11730013_a_at) / Fold change /veh MYO3A (11730013_a_at) / RFU EBF3 (11725865_a_at) / Fold change /veh EBF3 (11725865_a_at) / RFU CAMK2N1 (11719241_x_at) / Fold change /veh CAMK2N1 (11719241_x_at) / RFU C5orf56 (11738088_a_at) / Fold change /veh C5orf56 (11738088_a_at) / RFU OLFML3 (11715873_a_at) / Fold change /veh OLFML3 (11715873_a_at) / RFU LOC100653217 /// NTM (11731650_a_at) / Fold change /veh LOC100653217 /// NTM (11731650_a_at) / RFU MAPK11 (11762145_a_at) / Fold change /veh MAPK11 (11762145_a_at) / RFU FIZ1 (11724087_x_at) / Fold change /veh FIZ1 (11724087_x_at) / RFU OASL (11726364_x_at) / Fold change /veh OASL (11726364_x_at) / RFU SOX15 (11748057_x_at) / Fold change /veh SOX15 (11748057_x_at) / RFU CD79A (11719716_a_at) / Fold change /veh CD79A (11719716_a_at) / RFU HIST1H1D (11736915_at) / Fold change /veh HIST1H1D (11736915_at) / RFU CASKIN2 (11723855_a_at) / Fold change /veh CASKIN2 (11723855_a_at) / RFU LOC730098 (11760151_x_at) / Fold change /veh LOC730098 (11760151_x_at) / RFU OR4N2 (11742367_at) / Fold change /veh OR4N2 (11742367_at) / RFU PRRT2 (11749266_a_at) / Fold change /veh PRRT2 (11749266_a_at) / RFU SNX32 (11753110_a_at) / Fold change /veh SNX32 (11753110_a_at) / RFU CDHR5 (11726645_a_at) / Fold change /veh CDHR5 (11726645_a_at) / RFU RCAN1 (11760418_a_at) / Fold change /veh RCAN1 (11760418_a_at) / RFU FAM167A (11723789_a_at) / Fold change /veh FAM167A (11723789_a_at) / RFU FAM26E (11764081_at) / Fold change /veh FAM26E (11764081_at) / RFU ISYNA1 (11749810_s_at) / Fold change /veh ISYNA1 (11749810_s_at) / RFU ACY1 (11761880_at) / Fold change /veh ACY1 (11761880_at) / RFU 11764098_at / Fold change /veh 11764098_at / RFU SAMD14 (11745864_x_at) / Fold change /veh SAMD14 (11745864_x_at) / RFU NPB (11741838_a_at) / Fold change /veh NPB (11741838_a_at) / RFU TMPRSS6 (11731388_a_at) / Fold change /veh TMPRSS6 (11731388_a_at) / RFU KRTAP10-2 (11738614_at) / Fold change /veh KRTAP10-2 (11738614_at) / RFU ARHGAP8 /// PRR5-ARHGAP8 (11727945_x_at) / Fold change /veh ARHGAP8 /// PRR5-ARHGAP8 (11727945_x_at) / RFU KRTAP5-7 /// NADSYN1 (11734609_at) / Fold change /veh KRTAP5-7 /// NADSYN1 (11734609_at) / RFU RASL12 (11751679_a_at) / Fold change /veh RASL12 (11751679_a_at) / RFU CDKN2B (11736163_a_at) / Fold change /veh CDKN2B (11736163_a_at) / RFU PRF1 (11729649_at) / Fold change /veh PRF1 (11729649_at) / RFU, ZNF638 /// ZNF638-IT1 / Fold change vs veh, ZNF638 /// ZNF638-IT1 / RFU, PANK3 / Fold change vs veh, PANK3 / RFU, SH3YL1 / Fold change vs veh, SH3YL1 / RFU, ZEB2 / Fold change vs veh, ZEB2 / RFU, NRIP1 / Fold change vs veh, NRIP1 / RFU, PTTG1IP / Fold change vs veh, PTTG1IP / RFU, CAPN2 / Fold change vs veh, CAPN2 / RFU, MED14 / Fold change vs veh, MED14 / RFU, SNORA58 / Fold change vs veh, SNORA58 / RFU, C1orf63 / Fold change vs veh, C1orf63 / RFU, LRRFIP1 / Fold change vs veh, LRRFIP1 / RFU, NDUFAF7 / Fold change vs veh, NDUFAF7 / RFU, SLC12A2 / Fold change vs veh, SLC12A2 / RFU, IBTK / Fold change vs veh, IBTK / RFU, ESF1 / Fold change vs veh, ESF1 / Fold change vs veh, TMEM50B / RFU, TAOK1 / Fold change vs veh, TAOK1 / RFU, ACBD3 / Fold change vs veh, ACBD3 / RFU, TMA16 / Fold change vs veh, TMA16 / RFU, RWDD3 / Fold change vs veh, RWDD3 / RFU, BCAT1 / Fold change vs veh, BCAT1 / RFU, EDEM3 / Fold change vs veh, EDEM3 / RFU, TMEM33 / Fold change vs veh, TMEM33 / RFU, WDR75 / Fold change vs veh, WDR75 / RFU, AHCTF1 / Fold change vs veh, AHCTF1 / RFU, TFRC / Fold change vs veh, TFRC / RFU, ZDHHC17 / Fold change vs veh, ZDHHC17 / RFU, NOM1 / Fold change vs veh, NOM1 / RFU, ARL8B / Fold change vs veh, ARL8B / RFU, ZBTB11 / Fold change vs veh, ZBTB11 / RFU, TAMM41 / Fold change vs veh, TAMM41 / RFU, KIAA1704 /// LOC100996395 / Fold change vs veh, KIAA1704 /// LOC100996395 / RFU, ING1 / Fold change vs veh, ING1 / RFU, TRMT61B / Fold change vs veh, TRMT61B / RFU, FUBP3 / Fold change vs veh, FUBP3 / RFU, TP53 / Fold change vs veh, TP53 / RFU, TNKS2 / Fold change vs veh, TNKS2 / RFU, ZFP14 / Fold change vs veh, ZFP14 / RFU, ACTR2 / Fold change vs veh, ACTR2 / RFU, PPP3R1 / Fold change vs veh, PPP3R1 / RFU, PIK3R1 / Fold change vs veh, PIK3R1 / RFU, HNRNPA1 / Fold change vs veh, HNRNPA1 / RFU, RNF170 / Fold change vs veh, RNF170 / RFU, ZNF28 / Fold change vs veh, ZNF28 / RFU, RNGTT / Fold change vs veh, RNGTT / RFU, OGT / Fold change vs veh, OGT / RFU, BRD1 / Fold change vs veh, BRD1 / RFU, MARS / Fold change vs veh, MARS / RFU, ZNF655 / Fold change vs veh, ZNF655 / RFU, FAHD1 / Fold change vs veh, FAHD1 / RFU, BDP1 / Fold change vs veh, BDP1 / RFU, LRRCC1 / Fold change vs veh, LRRCC1 / RFU, ARID1A / Fold change vs veh, ARID1A / RFU, ZNF146 / Fold change vs veh, ZNF146 / RFU, ZNF330 / Fold change vs veh, ZNF330 / RFU, GPN3 / Fold change vs veh, GPN3 / RFU, C9orf123 / Fold change vs veh, C9orf123 / RFU, N4BP2L2 / Fold change vs veh, N4BP2L2 / RFU, ARFIP1 / Fold change vs veh, ARFIP1 / RFU, FAM179B / Fold change vs veh, FAM179B / RFU, BCL10 / Fold change vs veh, BCL10 / RFU, UHRF1BP1L / Fold change vs veh, UHRF1BP1L / RFU, BET1 / Fold change vs veh, BET1 / RFU, CNOT2 / Fold change vs veh, CNOT2 / RFU, ZNF268 / Fold change vs veh, ZNF268 / Fold change vs veh, ZNF507 / RFU, DGCR2 / Fold change vs veh, DGCR2 / RFU, WDSUB1 / Fold change vs veh, WDSUB1 / Fold change vs veh, HSP90B1 /// MIR3652 / RFU, ADSS / Fold change vs veh, ADSS / RFU, GK / Fold change vs veh, GK / RFU, ZNF148 / Fold change vs veh, ZNF148 / RFU, TAF9 / Fold change vs veh, TAF9 / RFU, SLC1A5 / Fold change vs veh, SLC1A5 / RFU, SLMO2 / Fold change vs veh, SLMO2 / RFU, ABCC4 / Fold change vs veh, ABCC4 / RFU, LOC101060439 /// RAP1B / Fold change vs veh, LOC101060439 /// RAP1B / RFU, RFX7 / Fold change vs veh, RFX7 / RFU, GTPBP10 / Fold change vs veh, GTPBP10 / RFU, CNEP1R1 / Fold change vs veh, CNEP1R1 / RFU, BIVM-ERCC5 /// ERCC5 / Fold change vs veh, BIVM-ERCC5 /// ERCC5 / RFU, ILF3 / Fold change vs veh, ILF3 / RFU 11762660_at / Fold change /veh 11762660_at / RFU VCAN (11757783_s_at) / Fold change /veh VCAN (11757783_s_at) / RFU DDX43 (11728927_at) / Fold change /veh DDX43 (11728927_at) / RFU KRT8 (11758188_x_at) / Fold change /veh KRT8 (11758188_x_at) / RFU NKD1 (11759106_at) / Fold change /veh NKD1 (11759106_at) / RFU SRD5A1 (11742802_a_at) / Fold change /veh SRD5A1 (11742802_a_at) / RFU TPSAB1 /// TPSB2 (11721975_s_at) / Fold change /veh TPSAB1 /// TPSB2 (11721975_s_at) / RFU GSTM3 (11746129_a_at) / Fold change /veh GSTM3 (11746129_a_at) / RFU IL23R (11737362_x_at) / Fold change /veh IL23R (11737362_x_at) / RFU TMEM51 (11727254_a_at) / Fold change /veh TMEM51 (11727254_a_at) / RFU PIWIL2 (11732686_x_at) / Fold change /veh PIWIL2 (11732686_x_at) / RFU ORM1 (11744905_x_at) / Fold change /veh ORM1 (11744905_x_at) / RFU CCDC152 (11743942_at) / Fold change /veh CCDC152 (11743942_at) / RFU ECM1 (11717891_a_at) / Fold change /veh ECM1 (11717891_a_at) / RFU IL23R (11748794_a_at) / Fold change /veh IL23R (11748794_a_at) / RFU TNFAIP8L3 (11732012_x_at) / Fold change /veh TNFAIP8L3 (11732012_x_at) / RFU MBOAT4 (11741988_at) / Fold change /veh MBOAT4 (11741988_at) / RFU 11764193_at / Fold change /veh 11764193_at / RFU TMEM53 (11763286_at) / Fold change /veh TMEM53 (11763286_at) / RFU MAGEB2 (11727129_at) / Fold change /veh MAGEB2 (11727129_at) / RFU TMEM200A (11744735_a_at) / Fold change /veh TMEM200A (11744735_a_at) / RFU CCDC152 (11751479_a_at) / Fold change /veh CCDC152 (11751479_a_at) / RFU FAM211A (11726209_a_at) / Fold change /veh FAM211A (11726209_a_at) / RFU RGS16 (11746705_a_at) / Fold change /veh RGS16 (11746705_a_at) / RFU VCAN (11755009_s_at) / Fold change /veh VCAN (11755009_s_at) / RFU RHOB (11743442_s_at) / Fold change /veh RHOB (11743442_s_at) / RFU RGS16 (11720943_a_at) / Fold change /veh RGS16 (11720943_a_at) / RFU RGS16 (11720944_at) / Fold change /veh RGS16 (11720944_at) / RFU, VPS4B / Fold change vs veh, VPS4B / RFU, CREB1 / Fold change vs veh, CREB1 / RFU, DNAJC13 / Fold change vs veh, DNAJC13 / RFU, GNAQ / Fold change vs veh, GNAQ / RFU, CDK5R1 / Fold change vs veh, CDK5R1 / RFU, ZRANB3 / Fold change vs veh, ZRANB3 / RFU, CUL4A / Fold change vs veh, CUL4A / RFU, CCNY / Fold change vs veh, CCNY / RFU, UFL1 / Fold change vs veh, UFL1 / RFU, COG3 / Fold change vs veh, COG3 / RFU, DIAPH2 / Fold change vs veh, DIAPH2 / RFU, SKA2 / Fold change vs veh, SKA2 / RFU, AFF3 / Fold change vs veh, AFF3 / RFU, LMF1 / Fold change vs veh, LMF1 / RFU, IPO11 / Fold change vs veh, IPO11 / RFU, DFFB / Fold change vs veh, DFFB / RFU, FOXP1 / Fold change vs veh, FOXP1 / RFU, CARD8 / Fold change vs veh, CARD8 / RFU, STRN3 / Fold change vs veh, STRN3 / RFU, ADK / Fold change vs veh, ADK / RFU, RASSF2 / Fold change vs veh, RASSF2 / RFU, WIPF1 / Fold change vs veh, WIPF1 / RFU, LARP1B / Fold change vs veh, LARP1B / RFU, RASA1 / Fold change vs veh, RASA1 / RFU, RB1 / Fold change vs veh, RB1 / RFU, PPFIA1 / Fold change vs veh, PPFIA1 / RFU, MAT2A / Fold change vs veh, MAT2A / RFU, CCT5 / Fold change vs veh, CCT5 / RFU, WDR92 / Fold change vs veh, WDR92 / RFU, CUX1 / Fold change vs veh, CUX1 / RFU, TTC7A / Fold change vs veh, TTC7A / RFU, TMEM135 / Fold change vs veh, TMEM135 / RFU, DEPTOR / Fold change vs veh, DEPTOR / RFU, CPM / Fold change vs veh, CPM / RFU, DNAJB6 / Fold change vs veh, DNAJB6 / RFU, CACNA2D3 / Fold change vs veh, CACNA2D3 / RFU, DTX4 / Fold change vs veh, DTX4 / RFU, TFCP2 / Fold change vs veh, TFCP2 / RFU, GMCL1 /// GMCL1P1 / Fold change vs veh, GMCL1 /// GMCL1P1 / RFU, AEBP2 / Fold change vs veh, AEBP2 / RFU, SNHG1 /// SNORD22 /// SNORD25 /// SNORD26 /// SNORD27 /// SNORD28 /// SNORD29 /// SNORD31 / Fold change vs veh, SNHG1 /// SNORD22 /// SNORD25 /// SNORD26 /// SNORD27 /// SNORD28 /// SNORD29 /// SNORD31 / Fold change (Aza/veh), C12orf56 (ProbeSet 11735607_a_at) / Fold change (ACY-1035/veh), C12orf56 (ProbeSet 11735607_a_at) / Fold change (Aza/veh), FGFR1OP (ProbeSet 11751329_s_at) / Fold change (ACY-1035/veh), FGFR1OP (ProbeSet 11751329_s_at) / Fold change (Aza/veh), VPS36 (ProbeSet 11739960_a_at) / Fold change (ACY-1035/veh), VPS36 (ProbeSet 11739960_a_at) / RFU SYPL1 (11715823_x_at) / Fold change /veh SYPL1 (11715823_x_at) / RFU IGFBP7 (11715501_s_at) / Fold change /veh IGFBP7 (11715501_s_at) / RFU REEP3 (11722064_at) / Fold change /veh REEP3 (11722064_at) / RFU IGLL1 (11728026_x_at) / Fold change /veh IGLL1 (11728026_x_at): dose or concentration left out as unconfirmed
Conditions: gene C12orf56; ACY-1035 vs DMSO; LIST F

Structure (SMILES): Nc1ccc(-c2cccs2)cc1NC(=O)c1ccc2c(c1)cc(C1CC1)n2CCN1CCOCC1 [ACY-1035]
- Fold change (ACY-1035/veh), C12orf56 (ProbeSet 11735607_a_at): 0.39
